Measurements as given in US20180360037A1, “STEREOISOMER OF BROMADIOLONE, COMPOSITION AND RODENTICIDE BAIT COMPRISING SAME, AND METHOD FOR CONTROLLING TARGET RODENT PESTS” (priority 2015, published 2018).
Like-named read-outs stand apart in the source and are kept apart here.

What was measured:
[1] = assay type: in vivo, rat; settings: for concentration of each enantiomer in rat liver: mixture of diastereoisomers, about 13 mg/kg per os on D0, from D+3, FIG. 3
Protocol: Separation of the configurational stereoisomers of bromadiolone is performed by high-pressure liquid chromatography (HPLC) on a LUX® Cellulose-1 chiral column (Phenomenex, Le Pecq, France) containing a chiral stationary phase constituted of particles of cellulose tris(3,5-dimethylphenyl carbamate), said particles having a mean size of 3 μm and having a mean pore size of 1000 Å. A mixture formed from acetonitrile (A) and water comprising 0.1% by volume of formic acid (B), with an A/B volume ratio of 80/20 and with a flow rate of 0.25 mL/minute in the chromatography column, is used as mobile phase. The concentration of the composition to be analysed is 1 μg of bromadiolone per millilitre of acetonitrile and the volume injected onto the column is 1 μL. Detection is performed by tandem mass spectrometry (MS/MS) in negative electrospray ionization (ESI) mode. The temperature of the nebulizer gas is 350° C. and its flow rate is 8 L/minute. The pressure of the nebulizer gas is brought to 2700 hPa. In particular, the MRM (“Multiple Reaction Monitoring”) transitions m/z 525.1→250.1 and m/z 525.1→181, corresponding to the bromadiolone signal, are detected.
About 0.525 g (±0.025 g) of rat liver is weighed out accurately and placed in a 50 mL polypropylene tube. 10 mL of acetone are added and the suspension is homogenized using an Ultra-Turrax® homogenizer/disperser for a time of about 30 seconds. The homogenizer/disperser shaft is rinsed with hot water and then twice with 20 mL of acetone in a polypropylene tube. The homogenate is centrifuged for 5 minutes at a centrifugation speed of 3000 rpm (revolutions per minute). The supernatant is collected and transferred into a test tube. The sample is subjected to evaporation under a stream of nitrogen (N2) at a temperature of 40° C. so as to form a dry extract.
1 mL of acetonitrile is added to the tube containing the dry extract so as to dissolve it. The acetonitrile solution is washed twice successively with 1 mL of hexane. The lipid-free extract is dried under a stream of nitrogen (N2) at a temperature of 40° C. and is then taken up in 0.5 mL of methanol and dissolved by vortex stirring. 0.5 mL of ultra-pure (Milli-Q) water is then added. The sample is vortex-homogenized.
1 mL of dichloromethane (CH2Cl2), then 1 mL of methanol (CH3OH), then 1 mL of ultra-pure (Milli-Q) water are passed through an Oasis HLB 1 cc cartridge (WAT094225, Waters). The lipid-free liver extract (1 mL MeOH/Milli-Q H2O) containing bromadiolone is then loaded onto the top of the preconditioned cartridge. The liver extract penetrates through the cartridge by gravity on contact with the solid phase of the cartridge. 1 mL of washing solution formed from methanol (CH3OH) and ultra-pure water (H2O) in a 90/10 volume proportion is loaded onto the top of the cartridge. The cartridge is dried by suction under vacuum connected to the bottom of the cartridge. 1 mL of eluting solution formed from dichloromethane (CH2Cl2) and methanol (CH3OH) in a 90/10 volume proportion is then loaded onto the top of the cartridge and an eluate comprising bromadiolone is collected at the bottom of the cartridge. The solvent of the eluate is evaporated off under a stream of nitrogen (N2) at a temperature of 40° C. The sample is taken up in 0.5 mL of acetonitrile and the acetonitrile solution containing bromadiolone is filtered through a 0.2 μm filter. […]

[2] = test system: male laboratory rats (OFA, Sprague-Dawley 200 g); assay: Anticoagulant power of each configurational stereoisomer of bromadiolone (coagulation time, Quick time, of plasma of tube-fed rats); assay type: in vivo, rat; settings: for anticoagulant effect (coagulation time, Quick time): 1.5 mg of enantiomer per kg rat by tube feeding on D0, up to D3, FIG. 4
Protocol: The following are administered to male laboratory rats (OFA, Sprague-Dawley 200 g) by tube feeding on D0: a composition comprising enantiomer E1 of said diastereoisomer D12 in a proportion of 1.5 mg of said enantiomer E1 per kilogram of rat; or a composition comprising enantiomer E2 of said diastereoisomer D1,2 in a proportion of 1.5 mg of said enantiomer E2 per kilogram of rat; or a composition comprising enantiomer E3 of said diastereoisomer D3,4 in a proportion of 1.5 mg of said enantiomer E3 per kilogram of rat; or a composition comprising enantiomer E4 of said diastereoisomer D3,4 in a proportion of 1.5 mg of said enantiomer E4 per kilogram of rat.
The rats receive vitamin K1 daily in a proportion of 0.1 unit of vitamin per 200 g of rat so as to keep them alive for 7 days or 14 days. However, the administration of vitamin K1 is stopped 48 hours before the rats are euthanized so as to allow evaluation of the Quick time without interference with the supplementation by tube feeding.
On these rats, blood is collected on D1, D3, D7 and D14 and measurement of the coagulation time (Quick time, expressed in seconds) of the plasma is performed using the “Neoplastine CI Determination of Prothrombin Time” kit (Diagnostica Stago, Asnière, France) by measurement on a Thrombotimer Option 2 Plus machine (Behnk Electronik, Norderstedt, Germany).

[3] = summary statement of the inventors

O=c1oc2ccccc2c(O)c1C(CC(O)c1ccc(-c2ccc(Br)cc2)cc1)c1ccccc1 (single isomer, unassigned) [enantiomer E2, 3-[3-(4′-bromo[1,1′-biphenyl]-4-yl)-3-hydroxy-1-phenylpropyl]-4-hydroxy-2H-1-benzopyran-2-one]
concentration of each enantiomer in rat liver ([1]; listed as E2): only enantiomer E1 remains in the rat liver

O=c1oc2ccccc2c(O)c1C(CC(O)c1ccc(-c2ccc(Br)cc2)cc1)c1ccccc1 (single isomer, unassigned) [enantiomer E1, 3-[3-(4′-bromo[1,1′-biphenyl]-4-yl)-3-hydroxy-1-phenylpropyl]-4-hydroxy-2H-1-benzopyran-2-one]
concentration of each enantiomer in rat liver ([1]; listed as E1): remains in the rat liver

O=c1oc2ccccc2c(O)c1C(CC(O)c1ccc(-c2ccc(Br)cc2)cc1)c1ccccc1 (single isomer, unassigned) [enantiomer E4, 3-[3-(4′-bromo[1,1′-biphenyl]-4-yl)-3-hydroxy-1-phenylpropyl]-4-hydroxy-2H-1-benzopyran-2-one]
concentration of each enantiomer in rat liver ([1]; listed as E4): only enantiomer E1 remains in the rat liver | persistence in the liver of target rodent pests [1, 3]: sufficient to be rodenticidal | anticoagulant effect (coagulation time, Quick time) ([2]; listed as E4): sufficient to maintain an anticoagulant effect at least up to D3 | anticoagulant activity compared with enantiomer E3 [2, 3]: higher anticoagulant activity than the anticoagulant activity of said enantiomer E3

O=c1oc2ccccc2c(O)c1C(CC(O)c1ccc(-c2ccc(Br)cc2)cc1)c1ccccc1 (single isomer, unassigned) [enantiomer E3, 3-[3-(4′-bromo[1,1′-biphenyl]-4-yl)-3-hydroxy-1-phenylpropyl]-4-hydroxy-2H-1-benzopyran-2-one]
concentration of each enantiomer in rat liver ([1]; listed as E3): only enantiomer E1 remains in the rat liver | anticoagulant effect (coagulation time, Quick time) ([2]; listed as E3): contrary to the ingestion of 1.5 mg of said enantiomer E3
